Reference: patent publication US20250041437A1, “HUMANIZED MUC1 ANTIBODY AND ANTIBODY DRUG CONJUGATE” (Sun Pharma Advanced Research Company Limited, priority 2023, published 2025)
Where a SMILES comes first, the peptide text is derived from it. [ ]: non-standard residue; d: D form. The star is where a group is joined. Dolaproine = CO[C@@H]([C@@H]1CCCN1)[C@@H](C)C(=O)O; Dil = CC[C@H](C)[C@H](NC)[C@@H](CC(=O)O)OC; X1 = C[C@@H](N*)[C@@H](O)c1ccccc1; NMeV = CN[C@H](C(=O)O)C(C)C

Columns and labels:
[1] = tested on: T47D breast carcinoma cells; experiment: Growth inhibition of human cancer cell lines, T47D; type: cell-based; conditions: free MMAE
[2] = tested on: MCF7 derived xenograft; conditions: mouse, in vivo
[3] = tested on: BxPC3 pancreatic carcinoma cells; experiment: Growth inhibition of human cancer cell lines, BxPC3; conditions: read-out: MMAE IC50; BxPC3, free MMAE
[4] = Single dose pharmacokinetics, COLO357 tumor bearing mouse, IV; type: in vivo
Protocol: The objective of this study was to evaluate serum, tumor and liver pharmacokinetics of TAB, CAB and uMMAE following 3 mg/kg single IV administration of M5LM4-ADC and pharmacokinetics of MMAE following 0.06 mg/kg single IV administration of MMAE alone in a COLO357 tumor bearing mouse model.
The blood samples were collected from the mouse at 0.083, 0.5, 1, 2, 4, 8, 24, 48, 72, 96, 168 and 336 hours post-dose (n=3 mice/time point; sparse sampling design) through retro-orbital plexuses and serum was immediately harvested. At 24, 48, 72, 96, 168 and 336 hour time-points, the tumor and liver were collected. Analysis of total antibody (TAB) and conjugated antibody (CAB) was done by a fit for purpose ELISA based method and analysis of free payload (MMAE) was done by a fit for purpose LC-MS/MS based method. Pharmacokinetic analysis was performed by the non-compartmental analysis tool of Phoenix WinNonlin® software.

[5] = tested on: SKOV3 derived xenograft; conditions: mouse, in vivo
[6] = tested on: COLO-357 pancreatic carcinoma cells; experiment: Growth inhibition of human cancer cell lines, COLO-357; conditions: read-out: MMAE IC50; COLO-357, free MMAE
[7] = MMAE, MMAE 0.06 mg/kg IV, liver
[8] = MMAE, MMAE 0.06 mg/kg IV, serum
[9] = MMAE, MMAE 0.06 mg/kg IV, tumor
[10] = single IV MMAE, COLO357 tumor bearing mice

CC[C@H](C)[C@@H]([C@@H](CC(=O)N1CCC[C@H]1[C@H](OC)[C@@H](C)C(=O)N[C@H](C)[C@@H](O)c1ccccc1)OC)N(C)C(=O)[C@@H](NC(=O)[C@@H](NC)C(C)C)C(C)C [Free MMAE, monomethyl auristatin E, reference compound] (H-[NMeV]V[Dil][Dolaproine]-X1)
IC50 [1]: 0.07 nM | mortality [2]: 3 of 8 | IC50 [3]: 0.02 nM | AUC0-336 [4, 7]: 0.19 µM·h | Cmax [4, 7]: 1.5 nM | T1/2 [4, 7]: 182 h | AUC0-24 [4, 8]: 0.018 µM·h | AUC0-336 [4, 8]: 0.021 µM·h | AUCINF [4, 8]: 0.021 µM·h | CL [4, 8]: 64 mL/min/kg | Cmax [4, 8]: 8 nM | T1/2 [4, 8]: 5 h | Tmax [4, 8]: 4.8 min | Vss [4, 8]: 34 L/kg | AUC0-336 [4, 9]: 1.391 µM·h | AUC ratio (Kp) [4, 9]: 66 | Cmax [4, 9]: 11 nM | T1/2 [4, 9]: 154 h | tumor exposure higher than in serum [4, 10]: 66 fold | tumor exposure higher than in the liver [4, 10]: 7 fold | mortality [5]: 3 of 8 | tumor growth inhibition (TGI) [5]: 106±10% | IC50 [6]: 0.16 nM
